These results are taken from patent publication US4005076A, “Hydrazones of 3-formylrifamycin SV” (Gruppo Lepetit S.p.A., priority 1971, dated 1977).

The subject of assay [1] is normal polymerases. The assay can be described thus: effect on normal polymerases, native template. Type of assay: biochemical. The settings on record: about 5 μg/ml. The method, then:
(§1) DNA polymerase assays were carried out in a final volume of 100 μl. The assay mixture contained Tris-HCl buffer, pH 8.3, 50 mM; MgAc, 6.0 mM; dithiothreitol, 8.0 mM; NaCl, 60 mM. Adjustment of pH was carried out after addition of inhibitors which were previously dissolved in dimethylsulfoxide (DMSO). The final concentration of DMSO was 0.5% and all control samples included this amount of DMSO. An enzyme concentration that catalyzes an incorporation of approximately 1.0 pmole/hr was used in the assay. The enzyme was in most cases preincubated for 5 minutes with the inhibitor. […]
(§2) In these cases, reactions were initiated by adding enzyme to the complete reaction mixture, which included the inhibitor. […] The products were collected on Millipore filter, washed extensively with 5% TCA and 1 ml. of DMSO-ethanol 0.1 M NaCl mixture (0.5:70:29.5), dried and counted in 2 ml. of BBS3 (Beckman) and 10 ml. of liquifluor (New England Nuclear) in a Packard liquid scintillation counter.

The test system of assay [2] is mouse embryo DNA-polymerase II (ME-DNA-P2). In words: effect on mouse embryo DNA-polymerase II. The settings on record: activated Calf-Thymus DNA. In kind it is biochemical. An excerpt: (§3) Oligo dT.Poly rA. ME-DNA-P1 and ME-DNA-p2 : activated
For assay [3], the target named is T1, RNA-dependent DNA polymerase of murine sarcoma virus (Moloney murine leukemia virus, UniProt P03355).
T1 construct: The virion polymerase was purified 20-40 fold; made in house; host or cells: virions from MSV (Moloney) transformed rat 78A1 cells and MSV (Harvey) transformed mouse MEH cells; disrupted virus or polymerase purified 20-40 fold
In words: inhibition of RNA-dependent DNA polymerase of murine sarcoma virus (3H-dTTP incorporation). To be noted: at a concentration of 2-100 μg/ml or less; 60 min. In kind it is biochemical. The method, then: The inhibiting activity of the inventive compounds has been tested on RNA-dependent DNA polymerase of murine sarcoma virus (endogenous) and RNA-dependent DNA polymerase activity of purified enzymes. The inhibition was tested according to the methods described by C. Gurgo et al., Nature, New Biology, 229, 111, 1971. The effect of different concentrations of drugs on polymerase activity was determined by following ^3 H-dTTP (tritiated thymine deoxyriboside triphosphate) incorporation into the insoluble fraction. A typical example of the experimental procedures is the following.
Virus was isolated and purified from murine sarcoma virus (Moloney isolate) transformed rat cells (78Al cells) and murine sarcoma virus (Harvey isolate) transformed mouse cells (MEH cells) as previously described (Green et al., Proc. Nat. Acad. Sci. USA 67, 385-393, 1970, Rokutanda et al., Nature, 227, 1026-1028, 1970). The virion polymerase was purified 20-40 fold by incubation of purified virus with 0.5% NP-40 (nonidet P-40) in 0.1 M NaCl, 0.01 M Tris buffer (pH 7.6), 0.001 M EDTA for 5 minutes at room temperature and zonal centrifugation in 15-30% sucrose gradients in 10 mM sodium phosphate buffer (pH 7.4), 2.5 mM MgCl2, 10 mM dithiothreitol, and 5% glycerol for 24 hours at 38,000 rpm in a Spinco SW41 rotor. The peak fractions of enzyme activity (13-17) of 22 fractions collected, were pooled and stored at -70° C. in 30% glycerol.
Enzyme incubation was performed for 1 hour at 37° C. in 100 μl of reaction mixture containing 40 mM Tris buffer (pH 8.0), 5 mM dithiothreitol, 30 mM NaCl, 2.5 mM MgCl2, 0.1 mM dATP, dGTP, dCTP, and 10 μCi of ^3 H-dTTP (12-18 Ci/mmole) as described by Green et al. in Proc. Nat. Acad. Sci. USA 67, 385-393, 1970. The reaction was terminated by the addition of 150 μl of 1N perchloric acid. Calf thymus DNA (100 μg) was added as carrier; the radioactive DNA product was processed as described in the two papers mentioned above. Endogenous RNA-dependent DNA-polymerase activity was measured after the addition of 0.01% NP-40 to purified virus at the time of assay. The DNA-polymerase activity of purified viral polymerase was measured with 2 μg of poly d (A-T) as template and no NP-40.
Rifamycin derivatives of this invention were dissolved in dimethylsulfoxide (DMSO) at a concentration of 5 mg/ml and stored at 4° C. Inhibition of the endogenous RNA-dependent DNA-polymerase activity was tested by adding 2 μl of derivative appropriately diluted in DMSO or 2 μl of DMSO (control) to the assay mixture prior to addition to disrupted virus which contained 15 to 30 μg of viral protein. Enzyme incubation was performed for 60 minutes at 37° C. Inhibition of purified enzyme was tested by pre-incubation of 2 μl of derivative or DMSO with 30 μl of enzyme (1 to 2 μg of protein) for 10 minutes at 37° C.; then 70 μl of substrate mixture were added and the mixture further incubated and processed as described above.

Assay [4] relates to mouse embryo DNA-polymerase I (ME-DNA-P1). In words: effect on mouse embryo DNA-polymerase I. Type of assay: biochemical. To be noted: activated Calf-Thymus DNA.
Description: as §3

The target of assay [5] is T2, mouse embryo RNA-polymerase I (ME-RNA-P1) (Mus musculus, UniProt O35134+P70700).
T2 construct: mouse embryo RNA-polymerase I (ME-RNA-P1); endogenous in cells; host or cells: mouse embryo cells
The assay can be described thus: effect on mouse embryo RNA-polymerase I. Type of assay: biochemical. An excerpt:
(§4) Calf-Thymus DNA. Me-RNA-P1 and ME-RNA-P2 : Single Stranded

Assay [6] concerns tumor virus polymerases. The assay can be described thus: inhibition of tumor virus polymerases, native template. Type of assay: biochemical. The settings on record: about 5 μg/ml. The method, then:
as §1, §2

Assay [7] concerns the target T3, mouse embryo RNA-polymerase II (ME-RNA-P2) (Mus musculus, UniProt P08775+Q8CFI7).
T3 construct: mouse embryo RNA-polymerase II (ME-RNA-P2); endogenous in cells; host or cells: mouse embryo cells
The assay can be described thus: effect on mouse embryo RNA-polymerase II. In kind it is biochemical.
Description: as §4

Assay [8] has as its target T4, sarcoma virus DNA-polymerases (SSV-DNA-P) (Woolly monkey sarcoma virus, UniProt P03359).
T4 construct: sarcoma virus DNA-polymerases (SSV-DNA-P)
The assay can be described thus: effect on activity of SSV-polymerase. Type of assay: biochemical. The settings on record: template Oligo dT.Poly rA. From the text: Templates used in the Enzymatic Assays were the following: SSV-DNA-P: […]

For assay [9], the system named is Staphylococcus aureus strain which is resistant to rifampicin (Staph. aureus Tour). In words: in vitro minimal inhibitory concentration against rifampicin-resistant Staphylococcus aureus strain. In kind it is cell-based. The settings on record: Staphylococcus aureus, read-out: Minimal inhibitory concentration. The method, then:
In particular, compounds illustrative of the invention at concentrations of about 10 to 20 μg/ml or less inhibit the growth of a Staph. aureus Tour strain resistant to rifampicin.
One of the most important characteristics of the new hydrazones is their activity against rifampicin-resistant Staphylococcus aureus strains. Rifampicin, that is 3-(4-methyl-1-piperazinyl)iminomethylrifamycin SV, disclosed in U.S. Pat. No. 3,342,810, is the most known and widely used rifamycin derivative in therapeutic practice.
The data of the new compounds are compared with those of representative hydrazones disclosed in U.S. Pat. No. 3,342,810.

SMILES strings stand for the structures. Values after ≈ are worked out from the molar mass of the structure shown.

T4 sequence (P03359 642-1310): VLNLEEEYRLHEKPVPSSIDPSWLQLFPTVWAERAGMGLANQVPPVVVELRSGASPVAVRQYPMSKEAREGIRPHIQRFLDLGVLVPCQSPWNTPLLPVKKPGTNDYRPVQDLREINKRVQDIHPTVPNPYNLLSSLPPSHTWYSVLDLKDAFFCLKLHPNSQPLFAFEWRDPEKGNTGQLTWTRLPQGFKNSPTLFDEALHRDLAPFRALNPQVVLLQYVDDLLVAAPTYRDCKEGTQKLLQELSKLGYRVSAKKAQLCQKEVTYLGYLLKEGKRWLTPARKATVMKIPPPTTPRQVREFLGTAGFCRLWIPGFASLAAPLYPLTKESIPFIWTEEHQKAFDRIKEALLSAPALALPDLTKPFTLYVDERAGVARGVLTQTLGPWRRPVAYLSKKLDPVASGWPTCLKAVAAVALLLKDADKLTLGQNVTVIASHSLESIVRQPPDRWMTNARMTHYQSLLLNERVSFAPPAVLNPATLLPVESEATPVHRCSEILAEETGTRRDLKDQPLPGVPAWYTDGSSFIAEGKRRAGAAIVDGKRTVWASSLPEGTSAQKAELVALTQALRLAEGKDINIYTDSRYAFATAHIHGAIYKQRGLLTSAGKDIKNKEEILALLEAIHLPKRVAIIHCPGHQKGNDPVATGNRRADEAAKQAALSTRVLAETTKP

As to `COC1C=COC2(C)Oc3c(C)c(O)c4c(O)c(c(C=NNc5ccc([N+](=O)[O-])cc5[N+](=O)[O-])c(O)c4c3C2=O)NC(=O)C(C)=CC=CC(C)C(O)C(C)C(O)C(C)C(OC(C)=O)C1C` (centres unmarked) [Example 12], in assay [1], the “activity on normal polymerases” value is “practically inactive”. For the same compound, the “% Control Activity of ME-DNA-P2 at 5μg” value in assay [2] (5μg) was 72%. The “% Control Activity of ME-DNA-P2 at 10μg” value in assay [2] (10μg) amounted to 83%. Besides, the “% Control Activity of ME-DNA-P2 at 100μg” value in [2] (100μg) was determined as 46%. For the same compound, the “incorporation of H3-dTTP relative to that found in the control tests” value in assay [3] is recorded as “less than 10%”. The “% Control Activity of ME-DNA-P1 at 5μg” value in [4] (5μg) amounted to 102%. For the same compound, the “% Control Activity of ME-DNA-P1 at 10μg” value in [4] (10μg) is 83%. Moreover, the “% Control Activity of ME-DNA-P1 at 100μg” value in assay [4] (100μg) stood at 11%. Besides, the remaining activity at 10 µg in assay [5] (read-out: % Control Activity of ME-RNA-P1 at 10μg) was 115%; in [7] (read-out: % Control Activity of ME-RNA-P2 at 10μg), 92%. The remaining activity at 100 µg in assay [5] (read-out: % Control Activity of ME-RNA-P1 at 100μg) amounted to 100%; in assay [7] (read-out: % Control Activity of ME-RNA-P2 at 100μg), 72%. The “inhibition of tumor virus polymerases” value in assay [6] came to 44%. In addition, the “% Control Activity of SSV-DNA-P at 5μg” value in assay [8] (5μg) is listed as 44%. Moreover, the “% Control Activity of SSV-DNA-P at 10μg” value in assay [8] (10μg) worked out at 34%. The “% Control Activity of SSV-DNA-P at 100μg” value in assay [8] (100μg) is listed as 1%. Further, in [9], the MIC was determined as 10 µg/mL (≈ 11 µM).
